Source: the supplement of paper PMC10307832

Assays:
Experiment in all cases: relative viability (nuclei count vs DMSO), 5 days (fraction); higher = more cells survive
[1] = compound: Cn1cc(-c2cnc3ccc4ccc(CS(=O)(=O)NCc5ccccn5)cc4c(=O)c3c2)cn1 [MK-8033] + CCNC(=O)c1noc(-c2cc(C(C)C)c(O)cc2O)c1-c1ccc(CN2CCOCC2)cc1 [Luminespib] (partner 0.01 µM)
Summary of the method: (§1)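 Lung cancer cell lines, seeded in 1536-well plates, were treated the following day by pin tool with a single drug or with five library-drug doses (not always all listed) in √10 steps on top of a fixed anchor-drug dose. Cells were fixed and nuclei stained in one step after 5 days, and nuclei were counted. Relative viability is the nuclei count for treated wells divided by that for vehicle wells, reported as medians of duplicate plates.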

[2] = compound: Cn1cc(-c2cnc3ccc4ccc(CS(=O)(=O)NCc5ccccn5)cc4c(=O)c3c2)cn1 [MK-8033] + CS(=O)(=O)CCNCc1ccc(-c2ccc3ncnc(Nc4ccc(OCc5cccc(F)c5)c(Cl)c4)c3c2)o1 [Lapatinib] (partner 2 µM)
Summary of the method: as §1

[3] = compound: CC[C@@H](C)CNCC(=O)N1CCC2=C([C@@H]1COC3=CC=CC(=C3)C)C=CS2 [RU-SKI 43] + Cc1nc(Nc2ncc(C(=O)Nc3c(C)cccc3Cl)s2)cc(N2CCN(CCO)CC2)n1 [Dasatinib] (partner 0.075 µM)
Summary of the method: as §1

[4] = compound: CCc1c2c(nc3ccc(OC(=O)N4CCC(N5CCCCC5)CC4)cc13)-c1cc3c(c(=O)n1C2)COC(=O)[C@]3(O)CC [Irinotecan] + CS(=O)(=O)N1CCN(Cc2cc3nc(-c4cccc5[nH]ncc45)nc(N4CCOCC4)c3s2)CC1 [Pictilisib] (partner 1 µM)
Summary of the method: as §1

Cell Line | relative viability ([1]; first compound 0.02 µM) | relative viability ([1]; first compound 0.06325 µM) | relative viability ([1]; first compound 0.2 µM) | relative viability ([1]; first compound 0.6325 µM) | relative viability ([1]; first compound 2 µM) | relative viability ([2]; first compound 0.02 µM) | relative viability ([2]; first compound 0.06325 µM) | relative viability ([2]; first compound 0.2 µM) | relative viability ([2]; first compound 0.6325 µM) | relative viability ([2]; first compound 2 µM) | relative viability ([3]; first compound 0.1 µM) | relative viability ([3]; first compound 0.3162 µM) | relative viability ([3]; first compound 1 µM) | relative viability ([3]; first compound 3.162 µM) | relative viability ([3]; first compound 10 µM) | relative viability ([4]; first compound 0.6325 µM) | relative viability ([4]; first compound 2 µM) | relative viability ([4]; first compound 6.325 µM) | relative viability ([4]; first compound 20 µM)
COR-L23 | 0.696 | 0.595 | 0.722 | 0.661 | 0.606 | 1.17 | 0.997 | 0.7 | 0.941 | 0.901 | 0.461 | 0.491 | 0.55 | 0.445 | 0.443 | 0.338 | 0.363 | 0.228 | 0.0867
NCI-H2126 | 0.905 | 0.757 | 0.817 | 0.836 | 0.872 | 0.743 | 0.653 | 0.744 | 0.779 | 0.803 | 0.65 | 0.652 | 0.681 | 0.67 | 0.586 | – | 0.41 | 0.286 | 0.335
EPLC-272H | 0.214 | 0.339 | 0.282 | 0.218 | 0.475 | 0.905 | – | 0.914 | 1.05 | 0.903 | 0.267 | 0.351 | 0.317 | 0.317 | 0.321 | 0.212 | 0.305 | 0.188 | 0.195
NCI-H1793 | 0.174 | 0.217 | 0.161 | 0.209 | 0.162 | 0.793 | – | 0.492 | 0.783 | 0.495 | 0.388 | 0.381 | 0.357 | 0.385 | 0.316 | – | 0.259 | 0.189 | 0.29
NCI-H2009 | 0.987 | 0.921 | 0.978 | 0.999 | 1 | 0.959 | 0.887 | 0.929 | 1.13 | 0.973 | 0.314 | 0.296 | 0.324 | 0.289 | 0.276 | 0.342 | 0.515 | 0.232 | 0.0786
NCI-H2347 | 0.362 | 0.277 | 0.473 | 0.408 | 0.556 | 0.872 | 0.858 | 0.903 | 0.781 | 0.914 | 0.34 | 0.23 | 0.364 | 0.203 | 0.293 | 0.542 | 0.355 | 0.36 | 0.461
LU99A | 0.24 | 0.272 | 0.258 | 0.177 | 0.241 | 1.03 | 0.892 | 0.97 | 0.893 | 0.764 | 0.486 | 0.614 | 0.602 | 0.587 | 0.599 | 0.206 | 0.211 | 0.206 | 0.235
NCI-H1915 | 0.728 | 0.8 | 0.676 | 0.827 | 0.668 | 0.935 | 0.85 | 0.992 | 1 | 0.948 | 0.337 | 0.331 | 0.357 | 0.306 | 0.318 | 0.341 | 0.261 | 0.185 | 0.195
H3255 | 0.864 | 0.737 | 0.834 | 0.896 | 0.916 | 0.24 | 0.233 | 0.232 | 0.261 | 0.226 | 0.364 | 0.387 | 0.578 | 0.393 | 0.309 | 0.302 | 0.272 | 0.222 | 0.23
